Data reported in patent US7154028B2, “Gibberellin 2-oxidase gene, functions and uses thereof” (National Agriculture and Bio-Oriented Research Organization, priority 2002, dated 2006).

How the values were obtained:
[1] = system: AtGA2ox1; conditions: GA-deficient mutants, after treatment with GA3; cited from earlier work
[2] = system: AtGA2ox2; conditions: GA-deficient mutants, after treatment with GA3; cited from earlier work
[3] = system: OsGA2ox1; conditions: GA3-treatment; cited from earlier work
[4] = system: OsGA2ox3; test: RNA gel blot of OsGA2ox3 transcription in treated rice seedlings; type: in vivo, Oryza sativa; conditions: for transcription level of the OsGA2ox3 gene: FIG. 6B; for Transcription level of OsGA2ox3: wild-type rice seedlings, 10 μM, three days, FIG. 6A
Method: (§1) Seeds of wild-type rice (Oryza sativa L., i.e. Nipponbare) were sterilized in 1% NaClO for one hour, and seeded on agar medium. Seedlings were grown in a growth chamber under continuous light at 30° C. To investigate the influence of GA3 and uniconazole on GA-oxidase expression, wild-type rice seedlings were transferred to a hydroponic culture system containing 10 μM GA3 or 10 μM uniconazole, and allowed to grow for three days. Ten-micrograms of RNAs were prepared from each sample, and gel blot analysis was performed as previously described (Sakamoto, T. et al., Plant Physiol., 125(3): 1508–16, 2001). The influence of uniconazole, a suppressor of GA3 and GA biosyntheses, on the transcriptional level of OsGA2ox2 and OsGA2ox3 (FIG. 6A) was examined. Transcription level of OsGA2ox3 was increased by GA3 treatment, but decreased by uniconazole (FIG. 6A) treatment. […] Transcription of the […] gene was not detected even after GA3 treatment.

[5] = system: OsGA20ox1; test: RNA gel blot of GA20-oxidase gene transcription in treated rice seedlings; type: in vivo, Oryza sativa; conditions: wild-type rice seedlings, 10 μM, three days, relative to the effect on OsGA2ox3
Method: as §1

[6] = system: OsGA2ox1; conditions: cited from earlier work
[7] = target: T1, OsGA2ox3 (Oryza sativa subsp. japonica, UniProt Q8S0S6); test: Enzyme assay with recombinant OsGA2ox3 (E. coli lysate), products identified by GC-MS; type: biochemical; conditions: labeled substrate incubated with recombinant OsGA2ox3, full scan GC-MS
T1 construct: general method only; made in house; host or cells: E. coli
Excerpt: A cell lysate obtained from E. coli heterologously expressing OsGA2ox3 cDNA was used for enzyme assay as previously described (Sakamoto, T. et al., Plant Physiol., 125(3): 1508–16, (2001)). […] However, GA20 was metabolized to a GA29-catabolite. Furthermore, the metabolism of GA29 to a GA29-catabolite was confirmed by metabolism experiments.

[8] = system: wild type rice; test: Overexpression of OsGA2ox3 cDNA in transgenic rice; type: in vivo, Oryza sativa
Method: As previously described (Sakamoto, T. et al., Plant Physiol., 125(3): 1508–16, 2001), the full-length OsGA2ox3 cDNA was inserted between the rice actin promoter and the polyadenylation signal of nopaline synthase (NOS) present in a hygromycin resistant binary vector pAct-Hm2. This construct was introduced into Agrobacterium tumefaciens EHA101. Agrobacterium-mediated transformation was conducted as described in the literature (WO 01/06844 A1). Transgenic plants were selected on a medium containing 50 mg/L hygromycin.
To test the activity of the OsGA2ox3 gene product in vivo, the full-length OsGA2ox3 cDNA was fused to the rice actin promoter and introduced into wild type rice by Agrobacterium-mediated gene transfer. […] Leaf blades of these plants were dark green, and they were shorter and wider than those of the wild type plants. All of these phenotypes are typical for GA-deficient dwarf rice plants.

T1 sequence (Q8S0S6 whole entry): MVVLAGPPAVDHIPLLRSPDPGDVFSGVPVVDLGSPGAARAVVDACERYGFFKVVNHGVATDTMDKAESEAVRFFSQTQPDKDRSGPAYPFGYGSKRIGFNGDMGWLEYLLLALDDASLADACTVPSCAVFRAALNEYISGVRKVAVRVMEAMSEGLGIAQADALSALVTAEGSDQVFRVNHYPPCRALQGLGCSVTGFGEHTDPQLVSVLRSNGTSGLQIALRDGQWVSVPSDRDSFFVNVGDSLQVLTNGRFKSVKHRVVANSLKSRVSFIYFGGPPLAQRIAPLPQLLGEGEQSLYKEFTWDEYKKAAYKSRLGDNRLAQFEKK

For C=C1C[C@]23C[C@@]1(O)CC[C@H]2[C@@]12C=C[C@H](O)[C@@](C)(C(=O)O1)[C@H]2[C@@H]3C(=O)O [GA3], the “transcription levels of AtGA2ox1” value [1] is given as “increased”, the “transcription levels of AtGA2ox2” value [2] is given as “increased” and the “transcription level of OsGA2ox1” value [3] is given as “not affected”. The “Transcription of the OsGA2ox3 gene” value ([4]; after GA3 treatment, detection) was “not detected”, the “transcription level of the OsGA2ox3 gene” value ([4]; one hour after GA3 treatment) was “increased” and the “transcription level of the OsGA2ox3 gene” value ([4]; six hours after GA3 treatment) was “decreased to a level that was even lower than the transcription level observed before GA3 treatment”. For the same molecule, the “Transcription level of OsGA2ox3” value [4] was “increased” and the “transcriptional level of the OsGA20ox1 gene” value [5] was “completely reversed”.

In the case of C=C1C[C@]23C[C@@]1(O)CC[C@H]2[C@@]12CC[C@H](O)[C@@](C)(C(=O)O1)[C@H]2[C@@H]3C(=O)O [GA1], the “product of metabolism by OsGA2ox1 gene product” value [6] is given as “GA8”, the Product [7] is given as “GA8” and the Product ([7]; listed as [^2H2]GA1) is given as “[^2H2]GA8”.

For CC(C)(C)C(O)/C(=C\c1ccc(Cl)cc1)n1cncn1 (centres unmarked) [uniconazole], the “Transcription level of OsGA2ox3” value [4] was “decreased” and the “transcriptional level of the OsGA20ox1 gene” value [5] was “completely reversed”.

In the case of C=C1C[C@]23C[C@@]1(O)CC[C@H]2[C@@]12CCC[C@@](C)(C(=O)O1)[C@H]2[C@@H]3C(=O)O [GA20, gibberellin A20], the “product of metabolism by OsGA2ox1 gene product” value [6] is listed as “GA29”, the Product [7] is listed as “GA29-catabolite” and the Product ([7]; listed as [^2H2]GA20) is listed as “[^2H2]GA29-catabolite”.

In the case of C=C1C[C@]23C[C@@]1(O)CC[C@H]2[C@@]12C[C@H](O)C[C@@](C)(C(=O)O1)[C@H]2[C@@H]3C(=O)O [GA29, gibberellin A29], the Product [7] is reported as “GA29-catabolite” and the Product ([7]; listed as [^2H2]GA29) is reported as “[^2H2]GA29-catabolite”.

B1: OsGA2ox3 cDNA: full-length rice GA2-oxidase cDNA (SEQ ID NO: 3) fused to the rice actin promoter, introduced into rice (nucleic acid, listed as Oryza sativa)
DNA: ATGGTGGTTCTCGCTGGCCCGCCCGCCGTCGATCACATCCCGCTGCTGAGGTCGCCGGACCCCGGCGACGTCTTCTCCGGCGTGCCGGTCGTCGACCTCGGCAGCCCCGGCGCGGCGAGGGCCGTGGTGGACGCCTGCGAGCGGTACGGGTTCTTCAAGGTCGTCAACCACGGCGTGGCCACGGACACGATGGACAAGGCCGAGTCGGAGGCCGTCAGGTTCTTCTCCCAGACGCAGCCCGACAAGGACCGCTCCGGCCCGGCCTACCCGTTCGGGTACGGCAGCAAGCGGATCGGGTTCAATGGCGACATGGGGTGGCTCGAGTACCTCCTCCTCGCCCTCGACGACGCGTCGCTCGCCGACGCCTGCACCGTCCCGTCCTGCGCGGTCTTCCGGGCCGCTCTGAACGAGTACATCTCGGGGGTGCGGAAGGTGGCGGTGCGGGTGATGGAGGCGATGTCGGAGGGGCTGGGCATTGCGCAGGCGGACGCGCTGAGCGCGCTGGTGACGGCGGAAGGGAGCGACCAGGTGTTCCGCGTGAACCACTACCCGCCGTGCCGCGCGCTGCAGGGGCTCGGCTGCAGCGTCACCGGCTTCGGCGAGCACACCGACCCGCAGCTCGTCTCCGTGCTCCGCTCAAACGGCACGTCCGGCCTGCAGATCGCGCTCCGCGACGGCCAGTGGGTGTCCGTGCCCTCCGACCGCGACTCCTTCTTCGTCAACGTCGGCGACTCGTTGCAGGTTCTGACCAATGGGAGGTTCAAGAGCGTGAAGCACAGGGTGGTGGCCAACAGCCTAAAGTCTAGGGTTTCCTTCATCTACTTTGGAGGGCCACCGTTAGCACAGAGGATTGCACCATTGCCACAGCTGCTGGGGGAGGGAGAGCAGAGCCTGTACAAGGAGTTCACATGGGATGAGTACAAGAAGGCTGCCTACAAATCAAGGCTTGGAGACAACAGGCTGGCCCAGTTTGAGAAGAAGTAG
modifications: rice actin promoter fused, not cited; CDS (1)..(984)
With B1 the “phenotype of transgenic plants” value ([8]; rice actin promoter, 27 independent lines, FIG. 5) was “extreme dwarf phenotypes” and the “flowering of transgenic plants” value ([8]; wild type flowered about three months after seeding) was “did not flower even after four months”.
